In patent US4132723A, “Substituted phenyl- or cyclohex-1-en-1-yl-3,7-demethyl-nona-2,4,6-trienoic acids and derivatives thereof” (Hoffmann-La Roche Inc., priority 1973, dated 1979):

Assays:
[1] = acute toxicity in mice after intraperitoneal administration in rape oil; settings: mouse, in vivo, ip
papillomas = assay: papilloma test (tumors induced with dimethyl-benzanthracene and croton oil); type: in vivo; settings: mice, intraperitoneal, 400 mg/kg/week, within 2 weeks
Method: The polyene compounds of formula I are useful in the topical and systemic prophylaxis and treatment of benign and malignant neoplasias and premalignant lesions. The tumor-inhibiting activity of the polyene compounds of the invention is significant. […] The diameter of such papillomas in mice decreased by 54% within 2 weeks upon the intraperitoneal administration of 3,7-dimethyl-9-(4-methoxy-2,3,6-trimethyl-phenyl)-nona-2,4,6-trien-1-oic acid at a dosage of 400 mg/kg/week.

For `COc1cc(C)c(CC/C(C)=C/C=C/C(C)=C/C(=O)O)c(C)c1C` [3,7-dimethyl-9-(4-methoxy-2,3,6-trimethyl-phenyl)-nona-2,4,6-trien-1-oic acid], the LD50 [1] was 1400 mg/kg, the LD50 at 24 h [1] was > 4000 mg/kg and the LD50 at 240 h [1] was 1400 mg/kg. The LD50 at 480 h [1] was 1400 mg/kg and the “decrease in diameter of papillomas” value (papillomas) was 54%.
